Values of other authors in patent US8173686B2, “Use of picoplatin to treat colorectal cancer” (priority 2006, dated 2012).

Conditions: in vivo

N.N.O=C([O-])C1(C(=O)[O-])CCC1.[Pt+2] [carboplatin]
main / dose-limiting toxicity: myelosuppression
